Structures can show the parent of a compound that is named as a salt. Where two headings read alike, the source gives them in different places.
How the values were obtained:
[1] = Pharmacokinetics of 3H-berberine in rabbits, intravenous and intravenous drip
Method: 0.1 ml of blood was removed at various times and radiation emissions were measured.

[2] = Excretion of berberine in rats (urine, fecal matter, gall bladder secretions); type: in vivo, rat; conditions: rats, oral 3H-berberine, forty-eight hours
Method: In a final series of animal model studies, rats were orally administered 3H-berberine. Forty-eight hours after administration, excretions were tested for the presence of berberine. 2.7% of the oral dose was measured in the urine and 86% of the oral dose was measured in the fecal matter.
Rats received intravenous berberine (9.25 MBq/kg). Six days accumulation of rat urine and fecal secretions were measured for the presence of berberine. 73% of the intravenous dose of the berberine was found in the accumulated urine in both metabolized and unmetabolized forms. 10.9% of the intravenous dose was found in the fecal matter.
Three rats were given berberine (9.25 MBq/kg) intravenously. After 24 hours, gall bladder secretions were collected and evaluated for the presence of berberine. There was 10.1±0.9% (x±SD, n=3) of berberine in the gall bladder secretions.

[3] = Tissue distribution of 3H-berberine in mice; type: in vivo, mouse; conditions: tail vein 135 LBq/10 g, 5 minutes to 2 hours
Method: Tissue radiation emission was measured 5 minutes to 2 hours after administration with the distribution of the berberine concentrations from highest to lowest being: lung>liver>kidney>spleen>heart>intestine>stomach>brain.

InsR mRNA = test: Kinase inhibitors on berberine-induced InsR gene transcription in HepG2 cells (RT-PCR); type: cell-based, human; conditions: HepG2, inhibitor 1 hour before 7.5 μg berberine 8 hours; calphostin C 0.2 μM
Method: (§1) To explore the pathway responsible for the berberine-induced InsR gene transcription, different kinase inhibitors were used, including the MEK1-ERK inhibitor U0126, the p38 kinase inhibitor SB203580, the c-Jun N-terminal kinase inhibitor curcumin, the PI-3 kinase inhibitor wortmannin, and the PKC inhibitor calphostin C.
(§2) HepG2 cells were pretreated with each of the inhibitors 1 hour prior to treatment with 7.5 μg of berberine for 8 hours. Total RNA was then isolated and the relative amount of InsR and LDLR mRNA was measured by quantitative RT-PCR as described in Example XVII. It was determined that the activity of berberine on InsR gene transcription was most sensitive to the PKC inhibitor calphostin C.

LDLR mRNA = test: Kinase inhibitors on berberine-induced LDLR mRNA in HepG2 cells (RT-PCR); type: cell-based, human; conditions: HepG2, inhibitor 1 hour before 7.5 μg berberine 8 hours; calphostin C 0.2 μM
Method: as §1, §2

[4] = tested on: patients with type 2 diabetes; type: in vivo, human; conditions: patients with type 2 diabetes, Mean ± SE
Description: Ninety-seven hyperglycemic patients (54 males and 43 females) with fasting blood glucose>7 mmol/L and post-prandial blood glucose>11.1 mmol/L were enrolled in a study at the Nanjing First Hospital in Nanjing, China. The patients were asked to end any current treatments for hyperglycemia at least 2 weeks prior to commencement of the study.
Fifty of the patients (male/female, 27/23; age 57±8y) were randomly assigned to be given 0.5 gram twice a day (1g/day total) of berberine (Nanjing Second Pharmaceutics, Inc., Nanjing, China), orally for 2 months. Out of these 50 patients, 25 had hyperlipidemia, 9 had hypertension and 2 had cardiovascular disease. Twenty-six patients (male/female, 15/11; age 56±11 y) were given 1.5 grams of metformin (Double-Crane Pharmaceutical, Inc., Beijing, China) per day, orally for two months. Of these twenty-six patients, 11 had hyperlipidemia, and four had hypertension. The remaining twenty-one patients (male/female, 11/10, age 49±10 y) were given 4 mg per day of rosiglitazone (Glaxowelcome, UK), orally for two months. Of these 21 patients, ten had hyperlipidemia and four had hypertension. Metformin and rosiglitazone served as reference controls as they are standard treatments for type 2 diabetes.
Blood samples were taken prior to the commencement of therapy and after completion of the therapy.

rat model subjects = test: Combinatorial anti-hyperlipidemia efficacy of berberine and lovastatin in rats (Table 9); type: in vivo
hyperlipidemia patients = conditions: three months
Method: After three months, fasting serum concentrations of cholesterol, triglycerides, HDL and LDL were measured using standard blood lipid tests.

InsR gene promoter = test: InsR promoter activity, pGL3-1.5kIRP transfected HepG2 cells; type: cell-based, human; conditions: pGL3-1.5kIRP transfected HepG2; calphostin C 0.2 μM, berberine 5 μg/ml
Method: The InsR promoter luciferase gene fusion plasmid (pGL3-1.5kIRP) was kindly provided by Dr. Araki E of the Graduate School of Medical Sciences, Kumamoto University, Honjo, Kumamoto, Japan.
After overnight incubation, the cells were treated with DMSO as the solvent control or with 0, 1, 2.5, 5, 7.5 and 10 μg/ml berberine for 8 h. Cell lysates were prepared and luciferase activities were measured using the Luciferase Reporter Gene Assay (Roche Applied Science). The experiment was repeated 4 times.

[5] = Distill Water; amount of solute 10 mg
[6] = tested on: high fat high cholesterol (HFHC) diet rats; test: Combination treatment with berberine and simvastatin in HFHC diet rats (Table 8); type: in vivo, rat; conditions: oral, after 25 days, daily dose berberine 100 mg/kg, simvastatin 25 mg/kg, combination 100 + 25, average ± standard error
Method: Rats were fed a high fat high cholesterol (HFHC) diet for 10 days, and then divided into groups of seven. The rats were then administered berberine or simvastatin, or a combination of berberine and simvastatin orally for 25 days. After 25 days, serum cholesterol, triglyceride and LDL-c levels were measured. […] The combination of simvastatin, and berberine lowered the cholesterol, triglyceride and LDL-c levels further than either alone.

LDLR promoter = LDLR promoter activity, pLDLR234Luc reporter in HepG2 cells; type: cell-based, human; conditions: pLDLR234Luc HepG2, LPDS or LPDS and cholesterol medium, 8 hour treatment
Description: HepG2 cells were transfected with the reporter construct pLDLR234Luc, which contains the SRE- I motif and the sterol-independent regulatory element that mediates the cytokine oncostatin M-induced transcription of the LDLR gene.

[7] = After treatment (2 months), oral: berberine 1 g/day, metformin 1.5 g/day, rosiglitazone 4 mg/day
[8] = high fat diet rats treated for 15 days, berberine 80 mg/kg/day, lovastatin 10 mg/kg/day
[9] = high fat diet rats, Day 0 (untreated rats, baseline)
[10] = 0.5 g twice a day, all treated patients (n=63)
[11] = only participants neither on drugs nor special diets

In the case of 3H-berberine, the Vd ([1]; 5 rabbits, intravenously 25 MBq/kg) is reported as 20 ± 3 L/kg, the Vd ([1]; four rabbits, intravenous drip 46.25 Mbq/kg) is reported as 22.1 ± 1.7 L/kg and the “oral dose measured in the fecal matter” value [2] is reported as 86%. For the same molecule, the “oral dose measured in the urine” value [2] was 2.7% and the “distribution of concentrations in tissues, highest to lowest” value [3] was “lung>liver>kidney>spleen>heart>intestine>stomach>brain”.

For `N#CC(=C(/N)Sc1ccccc1N)/C(C#N)=C(\N)Sc1ccccc1N` [U0126], the “effect of inhibitor on the activity of berberine on InsR gene transcription” value (InsR mRNA) was “did not effect” and the “effect of inhibitor on berberine-increased level of LDLR mRNA” value (LDLR mRNA) was “completely abolished”.

In the case of `CN(C)C(=N)N=C(N)N` [metformin, reference compound], the HbA1c [4, 7] is reported as 7.2 ± 0.3 %, the Triglyceride [4, 7] is reported as 1.6 ± 0.1 mmol/L and the “FBG (fasting blood glucose)” value ([4]; Before treatment (baseline)) is reported as 10.9 ± 0.5 mmol/L. For the same molecule, the HbA1c ([4]; Before treatment (baseline)) was 9.4 ± 0.5% and the Triglyceride ([4]; Before treatment (baseline)) was 1.7 ± 0.2 mmol/L.

For `CC[C@H](C)C(=O)O[C@H]1C[C@@H](C)C=C2C=C[C@H](C)[C@H](CC[C@@H]3C[C@@H](O)CC(=O)O3)[C@H]21` [lovastatin, reference compound], the “Cholesterol Day 15” value (rat model subjects; [8]) was 2.7 mmol/L, the “LDL Day 15” value (rat model subjects; [8]) was 1.62 mmol/L and the “Cholesterol Day 0” value (rat model subjects; [9]) was 3.6 mmol/L. For the same molecule, the “LDL Day 0” value (rat model subjects; [9]) was 2.15 mmol/L.

In the case of `CN(CCOc1ccc(CC2SC(=O)NC2=O)cc1)c1ccccn1` (stereo not drawn) [rosiglitazone, reference compound], the HbA1c [4, 7] is reported as 6.8 ± 0.3 %, the Triglyceride [4, 7] is reported as 1.6 ± 0.1 mmol/L and the “FBG (fasting blood glucose)” value ([4]; Before treatment (baseline)) is reported as 9.1 ± 0.8 mmol/L. For the same molecule, the HbA1c ([4]; Before treatment (baseline)) was 8.3 ± 0.4% and the Triglyceride ([4]; Before treatment (baseline)) was 1.9 ± 0.3 mmol/L.

In the case of `COc1ccc2cc3[n+](cc2c1OC)CCc1cc2c(cc1-3)OCO2` [berberine hydrochloride], the “lowering of serum LDL” value (hyperlipidemia patients; [10]) is reported as 20%, the “lowering of serum cholesterol” value (hyperlipidemia patients; [10]) is reported as 18% and the “lowering of serum triglycerides” value (hyperlipidemia patients; [10]) is reported as 28%. The “decrease of serum LDL” value (hyperlipidemia patients; [11]) was 25%, the “decrease of serum cholesterol” value (hyperlipidemia patients; [11]) was 29% and the “decrease of serum triglycerides” value (hyperlipidemia patients; [11]) was 35%.

In the case of Calphostin C, the “effect of inhibitor on the activity of berberine on InsR gene transcription” value (InsR mRNA) is reported as “completely eliminated”, the “effect of PKC inhibitor pre-treatment on berberine stimulation of InsR gene promoter” value (InsR gene promoter) is reported as “diminished the ability of berberine to stimulate the InsR gene promoter” and the “effect of inhibitor on berberine-increased level of LDLR mRNA” value (LDLR mRNA) is reported as “did not change”.

With `COc1ccc2cc3[n+](cc2c1OC)CCc1cc2c(cc1-3)OCO2.CS(=O)(=O)[O-]` [6. Methanesulfonate] the “Amount of Solvent” value [5] was 1.5.

In the case of `COc1ccc2cc3[n+](cc2c1OC)CCc1cc2c(cc1-3)OCO2.O=S(=O)([O-])O` [7. Hydrosulfate], the “Amount of Solvent” value [5] is reported as 1.5.

In the case of `CC(O)C(=O)[O-].COc1ccc2cc3[n+](cc2c1OC)CCc1cc2c(cc1-3)OCO2` [4. Lactate], the “Amount of Solvent” value [5] is reported as 6.0.

With `CCC(C)(C)C(=O)O[C@H]1C[C@@H](C)C=C2C=C[C@H](C)[C@H](CC[C@@H]3C[C@@H](O)CC(=O)O3)[C@H]21` [simvastatin, reference compound] the LDL-c [6] was 1.4 ± 0.1 mmol/L, the “Total Cholesterol” value [6] was 3.6 ± 0.4 mmol/L and the Triglyceride [6] was 2.5 ± 0.3 mmol/L.

In the case of `COc1ccc2cc3[n+](cc2c1OC)CCc1cc2c(cc1-3)OCO2.COc1ccc2cc3[n+](cc2c1OC)CCc1cc2c(cc1-3)OCO2.O=S(=O)([O-])[O-]` [8. Sulfate], the “Amount of Solvent” value [5] is reported as 0.5.

In the case of `CC(=O)[O-].COc1ccc2cc3[n+](cc2c1OC)CCc1cc2c(cc1-3)OCO2` [3. Acetate], the “Amount of Solvent” value [5] is reported as 9.0.

With `COc1ccc2cc3[n+](cc2c1OC)CCc1cc2c(cc1-3)OCO2.Cc1ccc(S(=O)(=O)[O-])cc1` [15. Toluenesulfonate] the “Amount of Solvent” value [5] was 11.0.

With `COc1ccc2cc3[n+](cc2c1OC)CCc1cc2c(cc1-3)OCO2.O=C([O-])C(F)(F)F` [16. Trifluoroacetate] the “Amount of Solvent” value [5] was 7.5.

For `COc1ccc2cc3[n+](cc2c1OC)CCc1cc2c(cc1-3)OCO2.O=C([O-])c1ccccc1` [13. Benzoate], the “Amount of Solvent” value [5] was 7.0.

B1: oncostatin M: cytokine oncostatin M that induces transcription of the LDLR gene (protein, UniProt P13725 26-221, looked up)
Oncostatin-M: AAIGSCSKEYRVLLGQLQKQTDLMQDTSRLLDPYIRIQGLDVPKLREHCRERPGAFPSEETLRGLGRRGFLQTLNATLGCVLHRLADLEQRLPKAQDLERSGLNIEDLEKLQMARPNILGLRNNIYCMAQLLDNSDTAEPTKAGRGASQPPTPTPASDAFQRKLEGCRFLHGYHRFMHSVGRVFSKWGESPNRSRR
In the case of B1, the LDLR promoter activity (LDLR promoter) is reported as “strongly elevated”.
